According to patent US10689399B2, “Substituted 3,4,5,6,8,10,14,14a-octahydro-2h-2,6-methanopyrido[1′,2′:4,5]pyrazino[2,1-b][1,3]oxazocines and methods for treating viral infections” (Gilead Sciences, Inc., priority 2012, dated 2020):

system: HIV-IIIb; experiment: Antiviral assay in MT4 cells; type: cell-based; conditions: Human immunodeficiency virus 1, IIIB, MT4, 120 h, MT4 cells infected with HIV-IIIb, 5 days, CellTiter-Glo; read-out: EC50 nM in MT-4
How it was run: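 MT4 cells pre-infected with HIV-IIIb (0.004 m.o.i.) at 37 °C, or mock-infected, then seeded at 2000 cells/well onto 3-fold serially diluted compound (10 concentrations, quadruplicate) in RPMI 1640 with 10% FBS. After 5 days at 37 °C, cell viability read by CellTiter-Glo luminescence.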

SMILES | EC50 [nM]
O=C(NCc1cccc(Cl)c1Cl)c1cn2c(c(O)c1=O)C(=O)N1[C@H]3CC[C@H](C3)[C@@H]1C2 [Compound 60, (1R,4S,12aR)—N-(2,3-dichlorobenzyl)-7-hydroxy-6,8-dioxo-1,2,3,4,6,8,12,12a-octahydro-1,4-methanodipyrido[1,2-a:1′,2′-d]pyrazine-9-carboxamide] | 2.1
O=C(NCc1ccc(F)cc1F)c1cn2c(c(O)c1=O)C(=O)N1C(C2)[N@@]2CCC[C@@H]1C2 (stereo partly drawn) [Compound 20, (1S,5R)—N-(2,4-difluorobenzyl)-8-hydroxy-7,9-dioxo-2,3,4,5,7,9,13,13a-octahydro-1,5-methanopyrido[1′,2′:4,5]pyrazino[1,2-a][1,3]diazepine-10-carboxamide] | 3.3
O=C(NC1(c2ccc(F)cc2F)CC1)c1cn2c(c(O)c1=O)C(=O)N1C(C2)O[C@H]2CCC[C@@H]1C2 (stereo partly drawn) [Compound 28, (2 S,6R)—N-(1-(2,4-difluorophenyl)cyclopropyl)-9-hydroxy-8,10-dioxo-3,4,5,6,8,10,14,14a-octahydro-2H-2,6-methanopyrido[1′,2′:4,5]pyrazino[2,1-b][1,3]oxazocine-11-carboxamide] | 15.6
O=C(NCc1ccc(F)cc1F)c1cn2c(c(O)c1=O)C(=O)N1C(C2)[N@@]2CC[C@@H]1C2 (stereo partly drawn) [Compound 4, (1S,4R)—N-(2,4-difluorobenzyl)-7-hydroxy-6,8-dioxo-3,4,6,8,12,12a-hexahydro-2H-1,4-methanopyrido[1′,2′:4,5]pyrazino[1,2-a]pyrimidine-9-carboxamide] | 14.8
C[C@@H](NC(=O)c1cn2c(c(O)c1=O)C(=O)N1[C@H]3CC[C@H](C3)[C@@H]1C2)c1c(F)cc(F)cc1F [Compound 77, (1R,4 S,12aR)-7-hydroxy-6,8-dioxo-N—((R)-1-(2,4,6-trifluorophenyl)ethyl)-1,2,3,4,6,8,12,12a-octahydro-1,4-methanodipyrido[1,2-a:1′,2′-d]pyrazine-9-carboxamide] | 5.6
C[C@@H](NC(=O)c1cn2c(c(O)c1=O)C(=O)N1[C@H]3CC[C@H](C3)O[C@@H]1C2)c1ccc(F)cc1 [Compound 10, (2R,5S,13aR)—N—((R)-1-(4-fluorophenyl)ethyl)-8-hydroxy-7,9-dioxo-2,3,4,5,7,9,13,13a-octahydro-2,5-methanopyrido[1%2′: 4,5]pyrazino[2,1-b][1,3]oxazepine-10-carboxamide] | 6.1
O=C(NCc1c(F)cc(F)cc1F)c1cn2c(c(O)c1=O)C(=O)N1[C@@H]3C[C@H]([C@@H]1C2)C(F)(F)C3 [Compound 57, (1R,4R,12aR)-2,2-difluoro-7-hydroxy-6,8-dioxo-N-(2,4,6-trifluorobenzyl)-1,2,3,4,6,8,12,12a-octahydro-1,4-methanodipyrido[1,2-a:1′,2′-d]pyrazine-9-carboxamide] | 2.3
O=C(NCc1ccc(F)cc1OC1CC1)c1cn2c(c(O)c1=O)C(=O)N1[C@H]3CC[C@H](C3)O[C@@H]1C2 [Compound 53, (2R,5S,13aR)—N-(2-cyclopropoxy-4-fluorobenzyl)-8-hydroxy-7,9-dioxo-2,3,4,5,7,9,13,13a-octahydro-2,5-methanopyrido[1%2′: 4,5]pyrazino[2,1-b][1,3]oxazepine-10-carboxamide] | 14.3
O=C(NCc1c(F)cc(F)cc1F)c1cn2c(c(O)c1=O)C(=O)N1[C@@H]3CC[C@@H](C3)O[C@H]1C2 [Compound 45, (13aS)-8-hydroxy-7,9-dioxo-N-(2,4,6-trifluorobenzyl)-2,3,4,5,7,9,13,13a-octahydro-2,5-methanopyrido[1′,2′:4,5]pyrazino[2,1-b][1,3]oxazepine-10-carboxamide] | 2.4
O=C(NCc1cc(F)cc(F)c1)c1cn2c(c(O)c1=O)C(=O)N1[C@@H]3CC[C@@H](C3)O[C@H]1C2 [Compound 24, (2 S,5R,13aS)—N-(3,5-difluorobenzyl)-8-hydroxy-7,9-dioxo-2,3,4,5,7,9,13,13a-octahydro-2,5-methanopyrido[1′,2′: 4,5]pyrazino[2,1-b][1,3]oxazepine-10-carboxamide] | 6.1
O=C(NCc1c(F)cc(F)cc1F)c1cn2c(c(O)c1=O)C(=O)N1[C@H]3C[C@H](C3)[C@H]1C2 (single isomer, unassigned) [Compound 96] | 2.6
O=C(N[C@@H](c1ccc(F)cc1F)C(F)(F)F)c1cn2c(c(O)c1=O)C(=O)N1C(C2)O[C@@H]2CC[C@H]1C2 (stereo partly drawn) [Compound 54, (2R,5S)—N—((S)-1-(2,4-difluorophenyl)-2,2,2-trifluoroethyl)-8-hydroxy-7,9-dioxo-2,3,4,5,7,9,13,13a-octahydro-2,5-methanopyrido[1′,2′:4,5]pyrazino[2,1-b][1,3]oxazepine-10-carboxamide] | 15.6
O=C(NCc1ccc(F)cc1F)c1cn2c(c(O)c1=O)C(=O)N1C(C2)O[C@@H]2CCC[C@H]1C2 (stereo partly drawn) [Compound 8, (2R,6S)—N-(2,4-difluorobenzyl)-9-hydroxy-8,10-dioxo-3,4,5,6,8,10,14,14a-octahydro-2H-2,6-methanopyrido[1′,2′:4,5]pyrazino[2,1-b][1,3]oxazocine-11-carboxamide] | 2.5
C[C@H](NC(=O)c1cn2c(c(O)c1=O)C(=O)N1[C@@H]3CC[C@@H](C3)O[C@H]1C2)c1ccc(F)cc1 [Compound 21, (2S,5R,13aS)—N—((S)-1-(4-fluorophenyl)ethyl)-8-hydroxy-7,9-dioxo-2,3,4,5,7,9,13,13a-octahydro-2,5-methanopyrido[1′,2′:4,5]pyrazino[2,1-b][1,3]oxazepine-10-carboxamide] | 38.3
C[C@H]1CO[C@@H]2Cn3cc(C(=O)NC4(c5ccc(F)cc5F)CC4)c(=O)c(O)c3C(=O)N12 [Compound 37, (3S,11aR)—N-(1-(2,4-difluorophenyl)cyclopropyl)-6-hydroxy-3-methyl-5,7-dioxo-2,3,5,7,11,11a-hexahydrooxazolo[3,2-a]pyrido[1,2-d]pyrazine-8-carboxamide] | 10.2
O=C(NCc1ccc(F)c(F)c1)c1cn2c(c(O)c1=O)C(=O)N1[C@@H]3CC[C@@H](C3)O[C@H]1C2 [Compound 18, (2S,5R,13aS)—N-(3,4-difluorobenzyl)-8-hydroxy-7,9-dioxo-2,3,4,5,7,9,13,13a-octahydro-2,5-methanopyrido[1′,2′:4,5]pyrazino[2,1-b][1,3]oxazepine-10-carboxamide] | 4.1
O=C(NCc1c(Cl)ccc(Cl)c1F)c1cn2c(c(O)c1=O)C(=O)N1[C@H]3CC[C@H](C3)[C@@H]1C2 [Compound 71, (1R,4S,12aR)—N-(3,6-dichloro-2-fluorobenzyl)-7-hydroxy-6,8-dioxo-1,2,3,4,6,8,12,12a-octahydro-1,4-methanodipyrido[1,2-a:1′,2′-d]pyrazine-9-carboxamide] | 2.6
O=C(NCc1c(F)cc(F)cc1F)c1cn2c(c(O)c1=O)C(=O)N1[C@@H]3C[C@@H](C[C@H]3F)[C@@H]1C2 [Compound 82, (1S,3R,4R,12aR)-3-fluoro-7-hydroxy-6,8-dioxo-N-(2,4,6-trifluorobenzyl)-1,2,3,4,6,8,12,12a-octahydro-1,4-methanodipyrido[1,2-a:1′,2′-d]pyrazine-9-carboxamide] | 2.9
O=C(NCc1ccc(F)cc1F)c1cn2c(c(O)c1=O)C(=O)N1[C@@H]3CC[C@@H](C3)O[C@H]1C2 [Compound 3, (2S,5R,13aS)—N-(2,4-difluorobenzyl)-8-hydroxy-7,9-dioxo-2,3,4,5,7,9,13,13a-octahydro-2,5-methanopyrido[1′,2′:4,5]pyrazino[2,1-b][1,3]oxazepine-10-carboxamide] | 2
C[C@@H]1C[C@H]2C[C@@H]1[C@@H]1Cn3cc(C(=O)NCc4c(F)cc(F)cc4F)c(=O)c(O)c3C(=O)N21 [Compound 84, (1S,2R,4 S,12aR)-7-hydroxy-2-methyl-6,8-dioxo-N-(2,4,6-trifluorobenzyl)-1,2,3,4,6,8,12,12a-octahydro-1,4-methanodipyrido[1,2-a:1′,2′-d]pyrazine-9-carboxamide] | 2.9
C[C@@H](NC(=O)c1cn2c(c(O)c1=O)C(=O)N1[C@@H]3CC[C@@H](C3)O[C@H]1C2)c1ccc(F)cc1 [Compound 9, (2S,5R,13aS)—N—((R)-1-(4-fluorophenyl)ethyl)-8-hydroxy-7,9-dioxo-2,3,4,5,7,9,13,13a-octahydro-2,5-methanopyrido[1′,2′:4,5]pyrazino[2,1-b][1,3]oxazepine-10-carboxamide] | 5.1
O=C(NCc1ccc(F)cc1F)c1cn2c(c(O)c1=O)C(=O)N1C(C2)[N@]2CCC[C@H]1C2 (stereo partly drawn) [Compound 19, (1R,5S)—N-(2,4-difluorobenzyl)-8-hydroxy-7,9-dioxo-2,3,4,5,7,9,13,13a-octahydro-1,5-methanopyrido[1′,2′:4,5]pyrazino[1,2-a][1,3]diazepine-10-carboxamide] | 2.8

same assay, conditions: Human immunodeficiency virus 1, IIIB, MT4, 120 h, read-out: EC50 nM in MT-4, MT4 cells infected with HIV-IIIb, 5 days, CellTiter-Glo

SMILES | EC50 [nM]
C[C@H]1C[C@@H]2C[C@H]1O[C@H]1Cn3cc(C(=O)NCc4ccc(F)cc4F)c(=O)c(O)c3C(=O)N21 [Compound 39, (2R,3S,5R,13aS)—N-(2,4-difluorobenzyl)-8-hydroxy-3-methyl-7,9-dioxo-2,3,4,5,7,9,13,13a-octahydro-2,5-methanopyrido[1′,2′:4,5]pyrazino[2,1-b][1,3]oxazepine-10-carboxamide] | 3.6
O=C(NCc1ccc(F)cc1F)c1cn2c(c(O)c1=O)C(=O)N1[C@H]3CC[C@H](C3)[C@@H]1C2 [Compound 47, (1R,4S,12aR)—N-(2,4-difluorobenzyl)-7-hydroxy-6,8-dioxo-1,2,3,4,6,8,12,12a-octahydro-1,4-methanodipyrido[1,2-a:1′,2′-d]pyrazine-9-carboxamide] | 1.9
O=C(NCc1ccc(F)cc1Cl)c1cn2c(c(O)c1=O)C(=O)N1[C@H]3CC[C@H](C3)O[C@@H]1C2 [Compound 63, (2R,5S,13aR)—N-(2-chloro-4-fluorobenzyl)-8-hydroxy-7,9-dioxo-2,3,4,5,7,9,13,13a-octahydro-2,5-methanopyrido[1′,2′:4,5]pyrazino[2,1-b][1,3]oxazepine-10-carboxamide] | 2.5
